Reference: patent publication US20090022806A1, “Nanoparticle and polymer formulations for thyroid hormone analogs, antagonists and formulations and uses thereof” (priority 2006, published 2009)

Legend:
[1] = tested on: human dermal fibroblast cells; assay: In vitro 3D wound healing assay of human dermal fibroblast cells; type: cell-based; settings: T4 between 0.1 μM and 1.0 μM
Description: Step 1: Prepare contracted collagen gels: • 1) Coat 24-well plate with 350 ul 2% BSA at RT for 2 hr, • 2) 80% confluent NHDF (normal human dermal fibroblast cells, Passage 5-9) are trypsinized and neutralized with growth medium, centrifuge and wash once with PBS • 3) Prepare collagen-cell mixture, mix gently and always on ice:
• 4) Aspire 2% BSA from 24 well plate, add collagen-cell mixture 350 ul/well, and incubate the plate in 37° C. CO2 incubator. • 5) After 1 hr, add DMEM+5% FBS medium 0.5 ml/well, use a 10 ul tip Detach the collagen gel from the edge of each well, then incubate for 2 days. The fibroblast cells will contract the collagen gel Step 2: Prepare 3D fibrin wound clot and embed wounded collagen culture • 1) Prepare fibrinogen solution (1 mg/ml) with or without testing regents. 350 ul fibrinogen solution for each well in eppendorf tube.
• 2) Cut each contracted collagen gel from middle with scissors. Wash the gel with PBS and transfer the gel to the center of each well of 24 well plate • 3) Add 1.5 ul of human thrombin (0.25 U/ul) to each tube, mix well and then add the solution around the collagen gel, the solution will polymerize in 10 mins. After 20 mins, add DMEM+1% (or 5%) FBS with or without testing agent, 450 ul/well and incubate the plate in 37° C. CO2 incubator for up to 5 days. Take pictures on each day.

platelets = assay: Collagen-induced platelet aggregation and secretion in whole blood (impedance); type: cell-based, human; settings: 10-100 nM
Description: Platelet aggregation and de-granulation in whole blood using Impedance Technique: The Model 560 Whole-Blood Aggregometer and the associated Aggro-Link Software from the Chrono-Log Corporation were used in this study. Two electrodes are placed in diluted blood and an electrical impulse is sent from one to the other. As the platelets aggregate around the electrodes, the Chrono-Log measures the impedance of the electrical signal in ohms of resistance.
The blood was kept on a rocker to extend the life of the platelets, and experiments were done within 5 hours of phlebotomy.
Procedure: For the control, 500 microliters of whole blood, 500 microliters of 0.9% saline, and a magnetic stir bar were mixed into a cuvette, and heated for five minutes to 37 degrees Celsius. Sub-threshold aggregation was induced with 5 microliters of 1-2 μg/ml Collagen, which the Aggregometer measured for 6-7 minutes. […] Ingerman-Wojenski C, Smith J B, Silver M J. Evaluation of electrical aggregometry: comparison with optical aggregometry, secretion of ATP, and accumulation of radiolabeled platelets. J Lab Clin Med. 1983 January; 101(1):44-52.

[2] = tested on: Human dermal micro-vascular endothelial cells (HDMEC); assay: Three-dimensional human micro-vascular endothelial sprouting assay; type: cell-based
Description: In Vitro Three-Dimensional Sprout Angiogenesis of Human Dermal Micro-Vascular Endothelial Cells (HDMEC) Cultured on Micro-Carrier Beads Coated with Fibrin: Confluent HDMEC (passages 5-10) were mixed with gelatin-coated Cytodex-3 beads with a ratio of 40 cells per bead. Cells and beads (150-200 beads per well for 24-well plate) were suspended with 5 ml EBM+15% normal human serum, mixed gently every hour for first 4 hours, then left to culture in a CO2 incubator overnight. The next day, 10 ml of fresh EBM+5% HS were added, and the mixture was cultured for another 3 hours. Before experiments, the culture of EC-beads was checked; then 500 ul of PBS was added to a well of 24-well plate, and 100 ul of the EC-bead culture solution was added to the PBS. The number of beads was counted, and the concentration of EC/beads was calculated.
A fibrinogen solution (1 mg/ml) in EBM medium with or without angiogenesis factors or testing factors was prepared. For positive control, 50 ng/ml VEGF+25 ng/ml FGF2 was used. EC-beads were washed with EBM medium twice, and EC-beads were added to fibrinogen solution. The experiment was done in triplicate for each condition. The EC-beads were mixed gently in fibrinogen solution, and 2.5 ul human thrombin (0.05 U/ul) was added in 1 ml fibrinogen solution; 300 ul was immediately transferred to each well of a 24-well plate. The fibrinogen solution polymerizes in 5-10 minutes; after 20 minutes, we added EBM+20% normal human serum+10 ug/ml aprotinin. The plate was incubated in a CO2 incubator. It takes about 24-48 hours for HDMEC to invade fibrin gel and form tubes.
A micro-carrier in vitro angiogenesis assay previously designed to investigate bovine pulmonary artery endothelial cell angiogenic behavior in bovine fibrin gels [Nehls and Drenckhahn, 1995a, b] was modified for the study of human microvascular endothelial cell angiogenesis in three-dimensional ECM environments (FIGS. 1 and 2). Briefly, human fibrinogen, isolated as previously described [Feng et al, 1999], was dissolved in M199 medium at a concentration of 1 mg/ml (pH 7.4) and sterilized by filtering through a 0.22 micron filter. An isotonic 1.5 mg/ml collagen solution was prepared by mixing sterile Vitrogen 100 in 5×M199 medium and distilled water. The pH was adjusted to 7.4 by 1N NaOH. In certain experiments, growth factors and ECM proteins (such as VEGF, bFGF, PDGF-BB, serum, gelatin, and fibronectin) were added to the fibrinogen or collagen solutions. About 500 EC-beads were then added to the 1 mg/ml fibrinogen or 1.5 mg/ml collagen solutions. Subsequently, EC-beads-collagen or EC-beads-fibrinogen suspension (500 EC-beads/ml) was plated onto 24-well plates at 300 ul/well. EC-bead-collagen cultures were incubated at 37° C. to form gel. The gelling of EC-bead-fibrin cultures occurred in less than 5 minutes at room temperature after the addition of thrombin to a final concentration of 0.5 U/ml. After gelation, 1 ml of fresh assay medium (EBM supplemented with 20% normal human serum for HDMEC or EBM supplemented with 10% fetal bovine serum was added to each well. The angiogenic response was monitored visually and recorded by video image capture. Specifically, capillary sprout formation was observed and recorded with a Nikon Diaphot-TMD inverted microscope (Nikon Inc.; Melville, N.Y.), equipped with an incubator housing with a Nikon NP-2 thermostat and Sheldon #2004 carbon dioxide flow mixer. The microscope was directly interfaced to a video system consisting of a Dage-MTI CCD-72S video camera and Sony 12″ PVM-122 video monitor linked to a Macintosh G3 computer. The images were captured at various magnifications using Adobe Photoshop. The effect of angiogenic factors on sprout angiogenesis was quantified visually by determining the number and percent of EC-beads with capillary sprouts. One hundred beads (five to six random low power fields) in each of triplicate wells were counted for each experimental condition. All experiments were repeated at least three times. […]

[3] = hormone 0.1 uM alone, pretreated FGF2 1.25 ng/ml + VEGF […], day 3

## N[C@@H](Cc1cc(I)c(Oc2cc(I)c(O)c(I)c2)c(I)c1)C(=O)O [T4, L-thyroxine]
[1]
  wound healing (outmigrating cells), Day 3: increases wound healing
platelets
  enhancing platelet aggregation and secretion (de-granulation): effective
[2]; 0.01-0.1 μM
  stimulation of angiogenesis: significant (P<0.01) stimulation of angiogenesis
[2]; FGF2 25 ng + VEGF 50 ng, T3 20 ng, T4 23 ng, T4-agarose 23 ng, pre-treated with FGF2 1.25 ng/ml + VEGF […]
  Mean Tube Vessel Length (mm) ± SD: 1.65 ± 0.15 mm
[2]; [3]
  Mean number of Migrated cells ± SD: 182 ± 11
  Mean vessel Length (mm) ± SD: 1.16 ± 0.21 mm
